Test results published in ChEMBL document CHEMBL3868623, “Difluorocyclobutylacetylenes as positive allosteric modulators of mGluR5 with reduced bioactivation potential” (Bioorg Med Chem Lett, 2016).

Experiments:
in vitro [1] = conditions: human, liver microsomes
in vitro [2] = conditions: mouse, liver microsomes

| remaining at 10 min (in vitro [1]) | remaining at 10 min (in vitro [2]) | Structure (SMILES) |
| --- | --- | --- |
| 76% | 71% | O=C1N[C@H](c2cncc(C#Cc3ccccc3)c2)[C@@H](c2cccc(F)c2)O1 |
| 95% | 81% | C[C@]1(O)C[C@@H](C#Cc2cncc([C@H]3NC(=O)O[C@@H]3c3cccc(F)c3)c2)C1 |
| 81% | 37% | O=C1N[C@H](c2cncc(C#C[C@H]3C[C@H](F)C3)c2)[C@@H](c2cccc(F)c2)O1 |
| 83% | 57% | O=C1N[C@H](c2cncc(C#C[C@H]3C[C@@H](F)C3)c2)[C@@H](c2cccc(F)c2)O1 |
| 100% | 74% | O=C1N[C@H](c2cncc(C#C[C@H]3C[C@H](O)C3)c2)[C@@H](c2cccc(F)c2)O1 |
| 100% | 51% | O=C1N[C@H](c2cncc(C#C[C@H]3C[C@@H](O)C3)c2)[C@@H](c2cccc(F)c2)O1 |
| 88% | 78% | C[C@]1(O)C[C@H](C#Cc2cncc([C@H]3NC(=O)O[C@@H]3c3cccc(F)c3)c2)C1 |

| Structure (SMILES) | remaining at 10 min (in vitro [1]) | remaining at 10 min (in vitro [2]) |
| --- | --- | --- |
| O=C1N[C@H](c2cncc(C#CC3CC(F)(F)C3)c2)[C@@H](c2ccc(F)cc2F)O1 | 100% | 84% |
| O=C1N[C@H](c2cncc(C#CC3CCOC3)c2)[C@@H](c2cccc(F)c2)O1 (stereo not given in full) | 93% | 63% |
| O=C1N[C@H](c2cncc(C#CC3CC3)c2)[C@@H](c2cccc(F)c2)O1 | 81% | 69% |
